Results taken from patent US8414879B2, “Superporous hydrogel with cells encapsulated therein and method for producing the same” (The Board of Trustees of the University of Illinois, priority 2008, dated 2013).
Where two headings read alike, the source gives them in different places.

Tests used:
cells [1] = assay: Effect of precursor solution components, LIVE/DEAD cell assay
Description: LIVE/DEAD cell assay was used to visualize live and dead cells (Gaugain, et al. (1978) Biochemistry 17:5071-8; Gaugain, et al. (1978) Biochemistry 17:5078-88). […] To the resuspended cells was added 100 μL of calcein-AM/ethidium homodimer stain (stock solutions of the dyes were prepared as per manufacturer's protocol-Molecular Probes). Cells were incubated for 30 minutes and images were captured of both treatment and control groups using a fluorescence microscope.
(§1) Specifically, cells were treated with 0.05% to 1.5% (w/v) APS at pH 5 for 10 minutes or 0.05% to 1.5% (w/v) APS at pH 8 for 24, 48, or 72 hours and compared to controls in a MTS test and LIVE/DEAD cell assay. Similarly, cells were treated with 0.05% to 0.90% (w/v) TEMED at pH 5 for 10 minutes or 0.05% to 0.90% (w/v) TEMED at pH 8 for 24, 48, or 72 hours and compared to controls in a MTS test and LIVE/DEAD cell assay. Likewise, cells were treated with 0.05% to 1.0% (w/v) F-127 at pH 5 for 10 minutes or 0.05% to 1.0% (w/v) F-127 at pH 8 for 24, 48, or 72 hours and compared to controls in a MTS test and LIVE/DEAD cell assay.
(§2) Treatment groups were compared to untreated controls in both a MTS test and LIVE/DEAD cell assay.
(§3) The suspension in the test tube was allowed to stand for 5 minutes. Cells were treated with the supernatant for 10 minutes or 24, 48, or 72 hours. The saturated solution was aspirated from the wells, cells were washed and analyzed with the MTS test and LIVE/DEAD cell assay.
(§4) The effects of precursor solution constituents on cell viability were analyzed over a 72 hour period. The experiments were designed based on the conditions that the cells would be exposed to during the fabrication of superporous hydrogels; i.e., exposure to each constituent of SPH individually at pH of 5 for 10 minutes and thereafter for 24, 48 and 72 hours at pH of 8. […] 96 AQUEOUS ONE® solution Cell Proliferation Assay (MTS) and LIVE/DEAD cell assay were used to determine the effect of each of the constituents on cell viability.

cells [2] = test system: cells
Description: Effect of Hydrogel Precursor Solution Components on Cell Viability. Cells (10^5 cells/mL) were plated on 48-well plates and were allowed to adhere to the plates overnight. […] The pH of one solution was adjusted to 5 (using […]) and that of the other solution was adjusted to 8 (using 1 M NaOH). […] The treatment groups were compared to untreated controls where cells were incubated with media. […] To this, 30 μL of MTS test reagent was added. Cells were then incubated with MTS test reagent for 3 hours and absorbance recorded at 490 nm on a UV plate reader.
as §1, §2, §3, §4

gingival fibroblasts = details: cited from earlier work
cells [3] = assay: Effect of physical foaming (nitrogen gas/compressed air) on cell viability; assay type: cell-based
Description: Effect of Physical Foaming on Cell Viability. Cells (10^5 cells/mL) were suspended in media and treated with the precursor solution used in fabrication of superporous hydrogels. […] The precursor solution was then exposed to UV for 3.5 minutes. In one treatment group nitrogen gas/compressed air was applied to the top of the cells at 200 psi for 2 minutes at a flow rate of 4000 mL/minute. In a second treatment group, nitrogen gas/compressed air was applied from below the cells suspended in the Buchner funnel at 200 psi for 2 minutes at a flow rate of 4000 mL/minute. Thereafter, each of the groups was exposed to UV at 5 mW/cm^2 for 3 minutes, washed twice with DPBS containing Ca and Mg, resuspended in fresh media and transferred to a 48-well plate. Cells were incubated for 24, 48 and 72 hours and cell viability was determined via the MTS test and LIVE/DEAD cell assay.

cells [4] = details: cells in media at pH 5, 10 minutes, MTS and LIVE/DEAD
Description: A third group was the untreated controls. At the end of 10 minutes, the cells were washed, resuspended in fresh media, and analyzed with the MTS test reagent and LIVE/DEAD cell assay.

With `N.N.O=S(=O)(O)OOS(=O)(=O)O` [APS, Ammonium persulphate] the live/dead cells (cells [1]; 0.05% APS) was “the cells were dead”, the live/dead cells (cells [1]; APS, end of each incubation period) was “dead cells at the end of each of the incubation periods” and the cell viability (cells [2]; 0.05% APS, MTS) was 60%. The viable cells (cells [2]; 0.70% APS, 10 minutes, pH 5, MTS) was 21.25±9.6%, the viable cells (cells [2]; 0.70% APS, 24 hours, pH 8, MTS) was 16.83±4.8% and the viable cells (cells [2]; 0.70% APS, 48 hours, pH 8, MTS) was 14.8±6.8%. For the same molecule, the viable cells (cells [2]; 0.70% APS, 72 hours, pH 8, MTS) was 11.63±0.3% and the toxicity (cells [2]; APS 0.05% to 1.5%, 10 minutes, 24, 48 and 72 hours) was “toxic to cells at all concentrations tested”.

For `CN(C)CCN(C)C` [TEMED, N,N,N′,N′-tetramethylethylenediamine], the live/dead cells (cells [1]; TEMED all concentrations, 10 minutes) was “cells were alive”, the live/dead cells (cells [1]; TEMED, longer time periods) was “they were dead” and the viable cells (cells [2]; 0.90% TEMED, 10 minutes, pH 5, MTS) was 108.59±1.23%. For the same molecule, the viable cells (cells [2]; 0.90% TEMED, 24 hours, pH 8, MTS) was 30.63±5.51%, the viable cells (cells [2]; 0.90% TEMED, 48 hours, pH 8, MTS) was 20.41±6.92% and the viable cells (cells [2]; 0.90% TEMED, 72 hours, pH 8, MTS) was 18.53±12.82%. For the same molecule, the toxicity (cells [2]; TEMED 0.05% to 0.90%, 10 minutes) was “no significant toxicity” and the toxicity (cells [2]; TEMED all concentrations, 24, 48 and 72 hours) was “toxicity observed at all concentrations”.

For `O=C(O)CC(O)(CC(=O)O)C(=O)O` [citric acid], the cell death (gingival fibroblasts; 47.6 mM (pH 2.3) in water, within three minutes) is given as “complete cell death”, the “inhibition of attachment and spreading of fibroblasts on Type I collagen” value (gingival fibroblasts; medium containing 11.9 mM) is given as 22% and the “inhibition of attachment and spreading of fibroblasts on culture plates” value (gingival fibroblasts; medium containing 11.9 mM) is given as 58%. For the same molecule, the “inhibition of protein synthesis” value (gingival fibroblasts; within three hours of incubation) was 0.28%, the viable cells (cells [2]; 10 min, 2.4 % (w/v), pH 5) was “about 99.7±11.6%” and the viable cells (cells [2]; 24 h, 2.4 % (w/v), pH 8) was 28.95±5.70%. For the same molecule, the viable cells (cells [2]; 48 h, 2.4 % (w/v), pH 8) was 15.81±1.80% and the viable cells (cells [2]; 72 h, 2.4 % (w/v), pH 8) was 16.20±6.81%.

In the case of `N#N` [nitrogen gas under pressure], the “cell death over 72 hours” value (cells [3]; cells washed and plated for 24, 48 and 72 hours after foaming) is reported as “cell death observed over 72 hours” and the “cell death compared to untreated controls” value (cells [3]; determined immediately after treating cells) is reported as “approximately 20%”.

With `[Na+].[OH-]` [sodium hydroxide] the “cell death on sudden pH change from acidic to alkaline” value (cells [4]) was “a significant amount of cell death”.
